This passage reports inhibition results from patent US20230080054A1 (ILDONG PHARMACEUTICAL CO., LTD., priority 2021, published 2023).

The structures appear in SMILES notation.

Assay [1] deals with T1, human ANO6 (Homo sapiens, UniProt Q4KMQ2).
T1 construct: expressed in transfected cells
T1 sequence (Q4KMQ2 1-931 isoform Q4KMQ2-2): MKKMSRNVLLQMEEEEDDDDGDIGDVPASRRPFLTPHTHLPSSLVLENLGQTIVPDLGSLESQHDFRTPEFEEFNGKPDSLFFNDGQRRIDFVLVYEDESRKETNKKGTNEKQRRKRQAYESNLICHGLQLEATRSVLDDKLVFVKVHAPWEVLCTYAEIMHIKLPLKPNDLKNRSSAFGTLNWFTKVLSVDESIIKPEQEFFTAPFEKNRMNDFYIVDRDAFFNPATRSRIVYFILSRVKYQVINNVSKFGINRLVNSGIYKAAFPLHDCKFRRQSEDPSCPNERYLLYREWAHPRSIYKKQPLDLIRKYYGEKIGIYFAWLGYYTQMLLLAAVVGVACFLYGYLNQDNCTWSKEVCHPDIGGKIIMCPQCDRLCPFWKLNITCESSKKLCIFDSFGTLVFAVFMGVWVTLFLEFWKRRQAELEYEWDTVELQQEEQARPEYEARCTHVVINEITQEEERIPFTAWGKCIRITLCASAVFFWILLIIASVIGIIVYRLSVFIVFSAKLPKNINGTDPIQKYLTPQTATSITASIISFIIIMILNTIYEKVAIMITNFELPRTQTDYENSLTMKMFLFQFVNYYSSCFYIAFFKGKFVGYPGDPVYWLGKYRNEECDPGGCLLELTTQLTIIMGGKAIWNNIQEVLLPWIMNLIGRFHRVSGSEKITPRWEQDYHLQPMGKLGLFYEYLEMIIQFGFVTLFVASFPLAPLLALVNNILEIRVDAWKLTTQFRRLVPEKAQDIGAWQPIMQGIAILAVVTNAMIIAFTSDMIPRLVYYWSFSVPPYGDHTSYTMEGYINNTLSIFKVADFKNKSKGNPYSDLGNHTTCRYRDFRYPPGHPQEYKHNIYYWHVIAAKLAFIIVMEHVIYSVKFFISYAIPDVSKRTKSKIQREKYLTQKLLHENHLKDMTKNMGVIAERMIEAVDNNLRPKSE
Nature of the assay: YFP quenching assay (ANO6 ion channel activity). The assay is classed as cell-based. Particulars: 10 μM ionomycin; for inhibition at 1 µM: test compound 1 μM, read-out: Inhibition Level 1 μM; for inhibition at 30 µM: test compound 30 μM, read-out: Inhibition Level 30 μM. A digest of the protocol: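 FRT cells stably expressing human ANO6 and YFP-H148Q/I152L/F46L, preincubated 10 min at 40° C with compounds (1% DMSO) in PBS. Quench read every 0.4 s after injecting 140 mM SCN- with 10 μM ionomycin; % inhibition from the 3.6–7.6 s fluorescence difference, normalised to no-ionomycin (100%) and ionomycin-only (0%) wells, duplicate or triplicate.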

Assay [2] has as its target T1, human ANO6. The assay can be described thus: LACT C2 assay (phosphatidylserine scramblase function assay). The format is cell-based. Particulars: FRT cells expressing human ANO6, 10 μM ionomycin; for inhibition at 0.1 µM: test compound 100 nM, read-out: Inhibition Level 100 nM; for inhibition at 1 µM: test compound 1 μM, read-out: Inhibition Level 1 μM. The gist of the method:
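Inhibition was normalised between ionomycin-only (0%) and untreated (100%) wells, with triplicates averaged. Readout was background-corrected Lact-C2-GFP (500 nM) fluorescence from imaged cells. The cells were FRT cells stably expressing human ANO6, given compound at 1% DMSO for 10 min before a 10 min 10 μM ionomycin challenge.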

In the case of `O=C(Nc1ccccc1)c1cccc(Nc2ccc(-c3ccccc3)nn2)c1` [Compound A89], the inhibition at 1 µM at human ANO6 [1] and at human ANO6 [2] was no less than 60% each time. Besides, on human ANO6 [2], the inhibition (usually the change of the read-out against control, counted positive when it falls) at 0.1 µM fell in the range of 30 to 60%.
Take `O=C(NCCCc1ccccc1)c1cccc(Nc2ccc(-c3ccccc3)cc2)c1` [Compound 53, 3-({[1,1′-biphenyl]-4-yl}amino)-N-(3-phenylpropyl)benzamide]: the inhibition at 1 µM at human ANO6 [1] and on human ANO6 [2] was no less than 60% in each case.
On to `O=C(NC1CCN(Cc2ccccc2)CC1)c1cccc(Nc2ncc(-c3ccccc3)cn2)c1` [Compound 120, N-(1-benzylpiperidin-4-yl)-3-[(5-phenylpyrimidin-2-yl)amino]benzamide], for which the inhibition at 1 µM on human ANO6 [1] and at human ANO6 [2] was less than 30% throughout. In addition, the inhibition at 0.1 µM on human ANO6 [2] is less than 30%.
As to `O=C(NCCc1ccccc1)c1cccc(Nc2cnc(-c3ccccc3)cn2)c1` [Compound 51, N-(2-phenylethyl)-3-[(5-phenylpyrazin-2-yl)amino]benzamide], the inhibition at 1 µM at human ANO6 [1] was no less than 60%. In addition, on human ANO6 [2], the inhibition at 0.1 µM is 30 to 60% and the inhibition at 1 µM was no less than 60%.
On to `O=C(Nc1ccc2c(c1)OCO2)c1cccc(Nc2ncc(-c3cccc(F)c3)cn2)c1` [Compound A85], for which the inhibition at 1 µM at human ANO6 [1] was no less than 60%. Besides, on human ANO6 [2], the inhibition at 0.1 µM was less than 30% and the inhibition at 1 µM is no less than 60%.
For `Cc1ccc(CNC(=O)c2cccc(Nc3ccc(-c4cscc4C)nn3)c2)o1` [Compound 74, N-[(5-methylfuran-2-yl)methyl]-3-{[6-(4-methylthiophen-3-yl)pyridazin-3-yl]amino}benzamide], the inhibition at 1 µM at human ANO6 [1] is no less than 60%. Also, at human ANO6 [2], the inhibition at 0.1 µM lay in the range of 30 to 60% and the inhibition at 1 µM was no less than 60%.
Turning to `O=C(NCCc1cc(F)cc(F)c1)c1cccc(Nc2ncc(-c3ccccc3)cn2)c1` [Compound 82, N-[2-(3,5-difluorophenyl)ethyl]-3-[(5-phenylpyrimidin-2-yl)amino]benzamide], the results for the inhibition at 1 µM at human ANO6 [1] and at human ANO6 [2] were 30 to 60% and less than 30%, respectively.
Consider `Cc1ccc(CNC(=O)c2cccc(Nc3ccc(-c4ccccc4)cc3)c2)o1` [Compound 3, 3-({[1,1′-biphenyl]-4-yl}amino)-N-[(5-methylfuran-2-yl)methyl]benzamide], for which, at human ANO6 [1], the inhibition at 1 µM is no less than 60% and the inhibition at 30 µM was no less than 60%. Moreover, at human ANO6 [2], the inhibition at 0.1 µM was less than 30% and the inhibition at 1 µM is no less than 60%.
`O=C(NCCN1CC2CCC1C2)c1cccc(Nc2ncc(-c3ccccc3)cn2)c1` (stereo not shown) [Compound 105, N-(2-{2-azabicyclo[2.2.1]heptan-2-yl}ethyl)-3-[(5-phenylpyrimidin-2-yl)amino]benzamide]: the inhibition at 1 µM on human ANO6 [1] is less than 30%. Further, at human ANO6 [2], the inhibition at 0.1 µM was less than 30% and the inhibition at 1 µM was less than 30%.
`O=C(NCc1ccc(Br)cc1)c1cccc(Nc2ccc(-c3ccc(F)cc3)nn2)c1` [Compound A26]: on human ANO6 [1], the inhibition at 1 µM lay within 30 to 60% and the inhibition at 30 µM is no less than 60%. In addition, at human ANO6 [2], the inhibition at 0.1 µM was less than 30% and the inhibition at 1 µM was less than 30%.
For `O=C(NCC1CCC1)c1cccc(Nc2ccc(-c3ccccc3)nn2)c1` [Compound 30, N-(cyclobutylmethyl)-3-[(6-phenylpyridazin-3-yl)amino]benzamide], on human ANO6 [1], the inhibition at 1 µM was no less than 60% and the inhibition at 30 µM is no less than 60%. Besides, the inhibition at 1 µM at human ANO6 [2] fell in the range of 30 to 60%.
For the compound `Cc1ccc(CNC(=O)c2cccc(Nc3ccc(-c4ccoc4)nn3)c2)o1` [Compound 7, 3-{[6-(furan-3-yl)pyridazin-3-yl]amino}-N-[(5-methylfuran-2-yl)methyl]benzamide], on human ANO6 [1], the inhibition at 1 µM was no less than 60% and the inhibition at 30 µM is no less than 60%. In addition, on human ANO6 [2], the inhibition at 0.1 µM is less than 30% and the inhibition at 1 µM is no less than 60%.
For `CCC(C)NC(=O)c1cccc(Nc2ccc(-c3ccccc3)nn2)c1` (stereo not shown) [Compound A78], on human ANO6 [1], the inhibition at 1 µM is no less than 60% and the inhibition at 30 µM was no less than 60%. At human ANO6 [2], the inhibition at 0.1 µM is less than 30% and the inhibition at 1 µM was less than 30%.
As to `O=C(NCCCc1ccccc1)c1cccc(Nc2ccc(-c3ccccc3)nn2)c1` [Compound A51], at human ANO6 [1], the inhibition at 1 µM is no less than 60% and the inhibition at 30 µM is no less than 60%. Moreover, on human ANO6 [2], the inhibition at 0.1 µM fell in the range of 30 to 60% and the inhibition at 1 µM was in the range of 30 to 60%.
With `O=C(NCc1ccc(F)cc1)c1cccc(Nc2ccc(-c3ccccc3)nn2)c1` [Compound A24], at human ANO6 [1], the inhibition at 1 µM was no less than 60% and the inhibition at 30 µM is no less than 60%. Also, the inhibition at 1 µM at human ANO6 [2] is 30 to 60%.
As to `Cc1ccc(CNC(=O)c2cccc(Nc3ncc(-c4ccccc4C(F)(F)F)cn3)c2)o1` [Compound 98, N-[(5-methylfuran-2-yl)methyl]-3-({5-[2-(trifluoromethyl)phenyl]pyrimidin-2-yl}amino)benzamide], the inhibition at 1 µM on human ANO6 [1] was no less than 60%; on human ANO6 [2] it was 30 to 60%.
With `O=C(NCc1ccc(Cl)c(Cl)c1)c1cccc(Nc2ccc(-c3ccccc3)nn2)c1` [Compound 36, N-(3,4-dichlorobenzyl)-3-((6-phenylpyridazin-3-yl)amino)benzamide], on human ANO6 [1], the inhibition at 1 µM was no less than 60% and the inhibition at 30 µM is no less than 60%. For the same compound, on human ANO6 [2], the inhibition at 0.1 µM lay in the range of 30 to 60% and the inhibition at 1 µM is no less than 60%.
As for `Cc1ccc(C(C)NC(=O)c2cccc(Nc3ccc(-c4ccccc4)nn3)c2)cc1` (stereo not shown) [Compound A57], on human ANO6 [1], the inhibition at 1 µM is no less than 60% and the inhibition at 30 µM is no less than 60%. At human ANO6 [2], the inhibition at 0.1 µM is less than 30% and the inhibition at 1 µM is less than 30%.
On to `CC(C)CNC(=O)c1cccc(Nc2ccc(-c3ccccc3)nn2)c1` [Compound A66], for which, on human ANO6 [1], the inhibition at 1 µM was no less than 60% and the inhibition at 30 µM was no less than 60%. Besides, at human ANO6 [2], the inhibition at 0.1 µM is less than 30% and the inhibition at 1 µM is less than 30%.
Consider `Cc1ccc(CNC(=O)c2cccc(Nc3ccc(-c4ccccc4)nn3)c2)s1` [Compound 40, N-[(5-methylthiophen-2-yl)methyl]-3-[(6-phenylpyridazin-3-yl)amino]benzamide], for which, on human ANO6 [1], the inhibition at 1 µM is no less than 60% and the inhibition at 30 µM was no less than 60%. On human ANO6 [2], the inhibition at 0.1 µM is less than 30% and the inhibition at 1 µM was no less than 60%.
Regarding `O=C(Nc1ccc(N2CCOCC2)cc1)c1cccc(Nc2ncc(-c3cccc(F)c3)cn2)c1` [Compound A84], the inhibition at 1 µM on human ANO6 [1] is no less than 60%. Further, on human ANO6 [2], the inhibition at 0.1 µM is less than 30% and the inhibition at 1 µM was 30 to 60%.
Take `Cc1ccc(CNC(=O)c2cccc(Nc3ccc(-c4ccc(F)cc4)nn3)c2)o1` [Compound A1]: at human ANO6 [1], the inhibition at 1 µM lay within 30 to 60% and the inhibition at 30 µM is no less than 60%. Also, on human ANO6 [2], the inhibition at 0.1 µM is less than 30% and the inhibition at 1 µM was less than 30%.
On to `CC(C)CCNC(=O)c1cccc(Nc2ccc(-c3ccccc3)nn2)c1` [Compound A70], for which, at human ANO6 [1], the inhibition at 1 µM was no less than 60% and the inhibition at 30 µM was no less than 60%. At human ANO6 [2], the inhibition at 0.1 µM lay within 30 to 60% and the inhibition at 1 µM is no less than 60%.
For the compound `Cc1ccc(CNC(=O)c2cccc(Nc3ccc(C4CCCCC4)nn3)c2)o1` [Compound 63, 3-[(6-cyclohexylpyridazin-3-yl)amino]-N-[(5-methylfuran-2-yl)methyl]benzamide], the inhibition at 1 µM on human ANO6 [1] is 30 to 60%; on human ANO6 [2], less than 30%.
Regarding `O=C(NCCc1ccccc1)c1cccc(Nc2ccc(-c3ccccc3)cn2)c1` [Compound 114, N-(2-phenylethyl)-3-[(5-phenylpyridin-2-yl)amino]benzamide], at human ANO6 [1], the inhibition at 1 µM was no less than 60%. For the same compound, on human ANO6 [2], the inhibition at 0.1 µM is less than 30% and the inhibition at 1 µM was no less than 60%.
Consider `O=C(NCC1CC1)c1cccc(Nc2ccc(-c3ccccc3)nn2)c1` [Compound 32, N-(cyclopropylmethyl)-3-[(6-phenylpyridazin-3-yl)amino]benzamide], for which, on human ANO6 [1], the inhibition at 1 µM is no less than 60% and the inhibition at 30 µM was no less than 60%. Besides, at human ANO6 [2], the inhibition at 1 µM was less than 30%.
